Measurements: PubChem BioAssay (NCI)
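Grown in 96-well plates, cells were treated for 48 hours with each compound at five concentrations. Insufficient inhibition: endpoint recorded as highest concentration tested. TGI denotes the concentration required for complete inhibition of growth.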 Where a SMILES comes first, the peptide text is derived from it. [ ]: non-standard residue; d: D form. The star is where a group is joined. Cbz = O=C(OCc1ccccc1)*; Boc = CC(C)(C)OC(=O)*; Aib = CC(C)(N)C(=O)O; OBn = c1ccc(CO*)cc1; OtBu = CC(C)(C)O*; βAla = NCCC(=O)O

Tests used:
Experiment in all cases: NCI tumour cell line growth inhibition, 48 h
IGROV1 ovarian = test system: IGROV1 ovarian
LOX IMVI melanoma = test system: LOX IMVI melanoma
MDA-MB-231 breast = test system: MDA-MB-231 breast
MOLT-4 leukemia = test system: MOLT-4 leukemia
NCI-H522 lung = test system: NCI-H522 lung
NCI/ADR-RES ovarian = test system: NCI/ADR-RES ovarian
OVCAR-8 ovarian = test system: OVCAR-8 ovarian
PC-3 prostate = test system: PC-3 prostate
SF-539 CNS = test system: SF-539 CNS
T-47D breast = test system: T-47D breast

Compound | TGI (IGROV1 ovarian) [µM] | TGI (LOX IMVI melanoma) [µM] | TGI (MDA-MB-231 breast) [µM] | TGI (MOLT-4 leukemia) [µM] | TGI (NCI-H522 lung) [µM] | TGI (NCI/ADR-RES ovarian) [µM] | TGI (OVCAR-8 ovarian) [µM] | TGI (PC-3 prostate) [µM] | TGI (SF-539 CNS) [µM] | TGI (T-47D breast) [µM]
CC(C)(C)OC(=O)CC(NC(=O)OC(C)(C)C)C(=O)NC(CCCCNC(=O)OCc1ccccc1)C(=O)NC(C)(C)C(=O)NCCC(=O)OCc1ccccc1 (stereo not drawn) (Boc-D(OtBu)K(Cbz)[Aib][βAla]-OBn; configuration not given here) | > 100 | > 100 | > 100 | > 100 | > 100 | > 100 | > 100 | > 100 | > 100 | > 100
O=C(Nc1cccc(-c2cn3ccccc3n2)c1)c1ccncc1 | > 100 | > 100 | 98.7 | 52.6 | 72.4 | 65.1 | > 100 | > 100 | > 100 | 79.6
COc1cc(C2C3=C(COC3=O)OC(C)(C)Oc3cc4c(cc32)OCO4)cc(OC)c1OC (stereo not drawn) | > 100 | > 100 | > 100 | > 100 | 30.1 |  | > 100 | > 100 | 0.582 | 
CCOC(=O)c1c(N2CCOCC2)[nH]c(=O)c(C(c2ccc(OC)cc2)c2c(O)c(C(=O)OCC)c(N3CCOCC3)[nH]c2=O)c1O |  | > 100 | > 100 | > 100 | > 100 | > 100 | > 100 | > 100 | > 100 | > 100
C/C=C/[C@H]1O[C@@](OC)([C@@H](C)[C@H](O)[C@H](C)[C@H]2OC(=O)/C(OC)=C/C(C)=C/[C@@H](C)[C@@H](O)[C@@H](C)[C@@H](O)[C@H](C)C/C(C)=C/C=C/[C@@H]2OC)CC(OC2CC(O)C(OC(N)=O)C(C)O2)[C@@H]1C (stereo partly drawn) | 15.1 | < 0.01 | 12.7 | < 0.01 | 1.42 | 19.4 | 17.3 | 6.09 | < 0.01 | 15.1
NC(N)=N/N=C/c1nc2sccn2c1[N+](=O)[O-] | > 100 | 56.1 | 80.5 |  | 89.9 | > 100 | > 100 | > 100 | > 100 | 65.1
O=c1[nH]nc(Cc2ccc(Cl)cc2)n1O | > 100 | > 100 | > 100 | > 100 | > 100 | > 100 | > 100 | > 100 | > 100 | > 100
COc1cc(/C=C2/SC(c3ccccc3)N(c3cccc([N+](=O)[O-])c3)C2=O)cc(OC)c1OC (stereo not drawn) |  | > 100 | > 100 | > 100 | > 100 | > 100 | > 100 |  | > 100 | > 100
Cc1ccc2c(c1)OC1Nc3ccccc3C1=C2O (stereo not drawn) | > 100 | 71.5 | 69.4 | > 100 | > 100 | 86.3 | > 100 | 39.6 | 44.4 | 85
COC1/C=C/C(C)C(C(C)C(OC)C(C)CCC(=O)C(C)C(CCC(=O)O)OC)OC(=O)/C=C/C=C(\C)CC(OC)CC2=CC(=O)O[C@@H](C(C)C(OC)CC(OC)/C=C/C(C)C(OC)C1)[C@H]2O (stereo partly drawn) | 0.948 | > 3.67 | 1.78 | > 3.93 | > 5 | > 5 | > 5 | 2.82 | > 5 | > 5
COC(=O)C(COC(=O)/C=C/c1ccc(OC(C)=O)c(OC(C)=O)c1)OC(=O)/C=C/c1ccc(OC(C)=O)c(OC(C)=O)c1 (stereo not drawn) | 23.9 | 23.4 | 35.6 | 7.2 | 26.7 | 50.5 | 26.4 | 23.4 | 24.2 | 
CC(C)(C)N1Cc2ccccc2/C(=C/Sc2ccccc2)C1=O | 24 | 11.3 | 33.9 | 48.4 | 11.4 | 33.6 | 22.3 | 26.6 | 24.3 | 45.3
CC1(C)[C@@H]2C[C@H]1c1cnc(-c3ccccn3)cc1C2[C@@H]1c2cc(-c3ccccn3)ncc2[C@@H]2C[C@H]1C2(C)C (stereo partly drawn) | > 100 | > 100 | > 100 | > 100 | > 100 | > 100 | > 100 | > 100 |  | > 100
COc1ccc(NC2Oc3cc4c(cc3C(c3cc(OC)c(O)c(OC)c3)C2C)OCO4)cc1 (stereo not drawn) | > 100 |  | 11 |  | 27.3 | 98 | 67.7 | > 100 | 25.6 | > 100
Nc1nc2c(ncn2C2C=CC(CO)O2)c(=O)[nH]1 (stereo not drawn) |  | > 100 | > 100 | > 100 |  | > 100 | > 100 | > 100 |  | > 100
COC(=O)c1cncc2c1CC1C3(C(=O)OC)C=NC(C4C(CO)=CCC43)C21C (stereo not drawn) | > 100 | > 100 | > 100 | > 100 | > 100 | > 100 | > 100 | > 100 | > 100 | > 100
Cc1ccc(O)c(C2=NNC(c3cccc(Br)c3)C2)c1 (stereo not drawn) | > 100 | > 100 |  | > 100 | > 100 | > 100 | > 100 | > 100 | > 100 | > 100
O=C(O)c1ccc(Nc2nc3cc(C(F)(F)F)ccc3nc2C(=O)O)cc1 | > 100 | > 100 | > 100 | > 100 | > 100 | > 100 | > 100 | > 100 |  | 
COc1ccc(OC)c2cc(Cc3ccc(N(C)C)cc3)c(=O)c(Cc3ccc(N(C)C)cc3)cc12 | > 100 |  | > 100 | > 100 | 89.9 | > 100 | > 100 | > 100 | > 100 | > 100
O=C1NC(N/N=C\c2ccccc2)=N/C1=C/c1ccc(Cl)cc1 | 41.2 | 67.9 | > 100 | 33.9 | 44.4 | 56.6 | 49.6 | 43.4 | 53.8 | > 100
